The record followed here is the OPERA property sets (Mansouri et al. 2018).

A word on the logP: it is the decadic logarithm of the partition coefficient of the neutral form, usually between octanol and water. Lower therefore signals a more hydrophilic compound.

Peptide text beside a SMILES is read from it.

As for `O=NN(CCCl)C(=O)NC1C(O)OC(CO)C(O)C1O` (stereo unspecified), the logP was -1.02.

Take `CC(=O)Oc1ccc(C(C)=O)cc1`: the logP turned out to be 1.29.

The compound `O=[N+]([O-])c1ccccc1SSc1ccccc1[N+](=O)[O-]` displayed a logP of 3.37.

The compound `CCn1c(=O)c2[nH]c(-c3ccccc3)nc2n(CC)c1=O` displayed a logP of 2.93.

Compound `CCc1cccc(C)c1N(C(=O)CCl)C(C)COC` (stereo unspecified) returned a logP of 3.13.

On to `CCOC(=O)c1cc(O)c(O)c(O)c1`, for which the logP was determined as 1.3.

In the case of `CCCCn1cnc2c(N)ncnc21`, the logP was found to be 1.25.

With `NC(=O)CCc1ccccc1`, the logP was 0.91.

`COc1cccc2c1C(=N)c1c(O)c3c(c(O)c1C2=O)CC(O)(C(O)CO)CC3OC1CC(N2CCOCC2)C(O)C(C)O1` (stereo unspecified): the logP was found to be 1.43.

`O=C(O)COc1ccc(Cl)c(I)c1`: the logP worked out at 3.1.

`Nc1ccc(CO)cc1` showed a logP of -0.22.

Consider `O=C(O)C(c1ccc(Cl)cc1)n1cccc1` (stereo unspecified), for which the logP stood at 2.3.

Compound `O=C(O)C=CC=Cc1ccccc1` had a logP of 3.15.

`C=CCOC(=O)c1ccccc1C(=O)OCC=C` displayed a logP of 3.23.

For `CC[C@H](C)[C@H](N)C(=O)O`, the logP is -1.72.

In turn, `c1ccc2c(c1)Cc1ccccc1-2` gave a logP of 4.18.

For the compound `CCCCCOC(=O)c1ccc(S(N)(=O)=O)cc1`, the lipophilicity (logP) came out at 2.71.

With `NC(=O)c1cccc(N)c1`, the logP was -0.33.

In turn, `CC(=O)C(=Cc1cccc(Cl)c1)C(C)=O` yielded a logP of 2.26.

Turning to `CC(C)C[N+](=O)[O-]`, the logP turned out to be 1.4.

For the compound `Cc1cccc(C)c1`, the logP is 3.2.

`COP(=S)(OC)Oc1ccc([N+](=O)[O-])c(C)c1` showed a logP of 3.3.

As for `ClCC(Cl)Cl`, the logP came out at 1.89.

The compound `CC(C)Nc1nc(Cl)nc(NC(C)C)n1` yielded a log partition coefficient (logP) of 2.93.

In the case of `O=C(Nc1cccc2cccnc12)C(F)(F)F`, the logP came out at 3.24.

`O=c1cc[nH]c2cc(C(F)(F)F)ccc12` registered a logP of 2.05.

Compound `CCCCCCCN(C)/N=N/c1ccc(C(N)=O)cc1` gave a logP of 4.2.

In turn, `CC(C)[C@@H](N)Cc1ccccc1` showed a logP of 2.59.

In turn, `OC12CC3CC(CC(C3)C1)C2` yielded a logP of 2.14.

For the compound `CC(=O)c1ccc(C(=O)OCCN(C)C)cc1`, the logP was determined as 1.57.

On to `CC(=O)c1cccc(OC(=O)N(C)C)c1`, for which the logP turned out to be 1.18.

In turn, `CCOC(=O)c1c[nH]cc1C` returned a logP of 2.14.

For the compound `Cc1ccc(NC(=O)N(C)C)cc1`, the logP turned out to be 1.33.

Consider `O=[N+]([O-])c1cccc(CO)c1`, for which the logP is 1.21. This logP and that of the compound before are within 0.2 log units of each other.

For `Oc1ccc(Cc2ccc(O)cc2)cc1`, the logP was 2.91.

The compound `CCC(=O)N(C)C` showed a logP of -0.11.

`O=S1(=O)NC(C(F)(F)F)=Nc2cc(Cl)ccc21`: the logP is 1.65.

In turn, `COC1C(O)C(C)OC(OC2CCC3(C)C(CCC4C3CCC3(C)C(C5=CC(=O)OC5)CCC43O)C2)C1O` (stereo unspecified) registered a logP of 2.1.

The compound `CCCOC(C)=O` registered a logP of 1.24.

The compound `CC1=C(C(=O)Nc2ccccc2)SCCO1` showed a logP of 2.14.

Turning to `S=C=NC(c1ccccc1)(c1ccccc1)c1ccccc1`, the logP came out at 7.02.

Compound `CS(=O)(=O)c1ccc2ncccc2c1` showed a logP of 0.7.

Turning to `COc1ccc(-c2cc3cnccc3[nH]2)c(OC)c1`, the logP was 3.5.

Consider `CN(C)C(=O)Nc1ccc(Cl)cc1`, for which the logP came out at 1.94.

Compound `CC(C)Oc1cc(-n2nc(C(C)(C)C)oc2=O)c(Cl)cc1Cl` registered a logP of 4.8.

`CCc1ccc(OC(C)=O)cc1` returned a logP of 2.56.

Compound `CCCCN(N=O)C(N)=O` showed a logP of 1.04.

Compound `CCOC(=O)C(C#N)=NNc1ccccc1Cl` returned a logP of 3.38.

`Cc1cc(-c2ccc(N)c(C)c2)ccc1N` came in with a logP of 2.34.

`CC(=O)Nc1cccnc1` had a logP of 0.41.

In the case of `CNC(=O)Oc1ccc(C(C)C)c(C)c1`, the logP was determined as 3.11.

For `CC1CCC(O)CC1` (stereo unspecified), the logP stood at 1.79.

As for `O=[N+]([O-])c1ccccc1O`, the logP amounted to 1.79.

The compound `OC[C@H]1O[C@@H](n2cnc3c(O)ncnc32)[C@H](O)[C@@H]1O` returned a logP of -2.1.

The compound `C1=CC=CCC=C1` gave a logP of 2.63.

As to `NNC(=O)c1ccnc([N+](=O)[O-])c1`, the logP was -0.76.

Consider `O=NN(CCCl)C(=O)NC1CCCCC1Cl` (stereo unspecified), for which the lipophilicity (logP) amounted to 2.73.

Take `c1ccc(-n2cccn2)cc1`: the logP was 2.2.

`COc1cc([C@@H]2c3cc4c(cc3[C@H](O)[C@H]3COC(=O)[C@H]23)OCO4)cc(OC)c1OC` had a logP of 2.01.

`C[C@H](N[C@H](CCc1ccccc1)C(=O)O)C(=O)N1CCC[C@H]1C(=O)O`: the logP was -0.74.

Turning to `FC(F)(F)c1nc2c(Cl)cc(Cl)c(Cl)c2[nH]1`, the logP was determined as 3.78.

In the case of `CC(=O)C(C)(C)C`, the logP was determined as 1.2.

Compound `O=C(O)C1c2ccccc2-c2ccccc21` yielded a logP of 2.8.

`CCCCOCc1cccc(NC(=O)OCCN2CCCCC2)c1` came in with a logP of 3.73.

On to `CC#N`, for which the logP was -0.34.

Compound `Clc1cc(Cl)c(Cl)c(Cl)c1` had a logP of 4.56.

Compound `NC(=S)c1ccccc1N` came in with a logP of 0.99.

Consider `CC(C)OCCO`, for which the logP came to 0.05.

`Nc1ccc(C(=O)Oc2ccccc2Cl)c(O)c1` returned a logP of 3.72.

Consider `Clc1cc(Cl)nc(-c2ccccc2)n1`, for which the logP came to 4.17.

Turning to `CNC(=O)Oc1ccc(C)cc1`, the logP is 1.66.

`CCOC(=O)C(=Cc1c(Cl)cccc1Cl)C(C)=O` yielded a logP of 2.86.

The compound `O=S(=O)(O)c1cc(O)c2ccccc2c1` yielded a logP of -0.18.

`Cc1ccc(N)nc1` had a logP of 1.02.

`S=C=Nc1ccc2ccccc2c1`: the logP was 4.34.

As for `Cc1ccc(CO)cc1`, the logP was determined as 1.58.

With `CC(=O)c1csc2ccccc12`, the logP stood at 2.78.

Regarding `Oc1ccccc1F`, the logP is 1.71.

`COc1cccc([N+](=O)[O-])c1` registered a logP of 2.16.

Compound `CCCCOCC` displayed a logP of 2.03.

Take `CCN(CC)CCOC(=O)C=Cc1cc(OC)c(OC)c(OC)c1`: the logP came to 2.84.

Turning to `O=C(O)Cc1sc(-c2ccccc2)nc1-c1ccc(Cl)cc1`, the logP came out at 5.19.

For the compound `O=C(O)COc1cccc(C(F)(F)F)c1`, the logP stood at 2.36.

As to `CC(=O)c1cnc2ccccc2c1`, the logP was determined as 1.76.

`C=C(C=O)CC` registered a logP of 1.24.

For `CCc1ccc(S(N)(=O)=O)cc1`, the logP was determined as 1.31.

The compound `COC(N)=O` showed a logP of -0.66.

The compound `CCOCCO` had a logP of -0.32.

In the case of `CCCC(C)(COC(N)=O)COC(N)=O`, the logP was determined as 0.7.

On to `O=[N+]([O-])c1cccc(I)c1`, for which the logP turned out to be 2.94.

Consider `O=[N+]([O-])c1ccc(OC2OC(CO)C(O)C(O)C2O)cc1` (stereo unspecified), for which the logP was -0.44.

As to `NC(=O)NNC(=O)c1ccccc1`, the logP was -0.5.

Compound `NC(=O)C=Cc1ccccc1` returned a logP of 1.43.

The compound `CCSc1ccccc1` yielded a logP of 3.2.

`CC(C)(c1ccc(O)cc1)c1ccc(O)cc1`: the logP came to 3.32. The logP values of the last two compounds are within 0.2 log units of each other.

In turn, `O=C(NO)c1ccccc1` yielded a logP of 0.26.

As for `CC(C)(C(=O)O)C(=O)O`, the logP worked out at 0.39. The logP values of the last two compounds are within 0.2 log units of each other.

For the compound `CC(=O)Nc1cccc(O)c1`, the logP worked out at 0.73.

The compound `C=C(C)C(=O)O` came in with a logP of 0.93.

For `COC(=O)c1ccccc1Cl`, the logP is 2.38.

`COc1cc(C(O)CO)ccc1O` (stereo unspecified) had a logP of -0.58.

Compound `CC(C)CC(N)Cc1ccccc1` (stereo unspecified) yielded a logP of 3.29.

For the compound `O=NN1CCC(Cl)C(Cl)C1` (stereo unspecified), the logP turned out to be 1.04.

Compound `CC12CCC(=O)C=C1CCC1C2C(O)CC2(C)C1CCC2(O)C(=O)COC(=O)CCC(N)=O` (stereo unspecified) displayed a logP of 1.43.

`CCCN(CCC)CCC` displayed a logP of 2.79.

In turn, `CC(=O)OCc1ccc([N+](=O)[O-])cc1` had a logP of 1.73.

Take `CCCCOc1ccc(O)cc1`: the logP is 2.9.

For `Cc1cccnc1`, the logP came out at 1.2.

For the compound `OCCCOc1cccc(CN2CCCCC2)c1`, the logP amounted to 2.78.

`CCOc1ccc(CC(=O)O)cc1` showed a logP of 1.95.

Compound `O=C(NCc1ccc(O)cc1)c1ccccc1` had a logP of 1.87.

The compound `CCC(C)C(NC(=O)C(CCC(=O)O)NC(C)=O)C(=O)NC(Cc1ccccc1)C(N)=O` (stereo not drawn) (Ac-Glu-Ile-Phe-NH2; configuration not given here) registered a logP of 0.43.

The compound `C[N+](C)(C)Cc1ccccc1.[Cl-]` displayed a logP of -2.17.

`SC1=NCCCN1` displayed a logP of -0.68.

With `O=C1CN=C(c2ccccc2C(F)(F)F)c2ccccc2N1`, the logP turned out to be 2.47.

On to `COc1cccc(COC(=O)N(C)C)c1`, for which the logP is 2.09.

Compound `O=c1[nH]c2ccccc2n1C1CCN(CCCC(c2ccc(F)cc2)c2ccc(F)cc2)CC1` showed a logP of 6.3.

For `CC(C)C[C@H](N)C(=O)O`, the logP was -1.52.

Regarding `CCCC(O)C(C(=O)O)c1ccc(-c2ccccc2)cc1` (stereo unspecified), the logP stood at 3.75.

`Cc1cc(=O)oc2cc(O)ccc12` returned a logP of 1.9.

The compound `CC1(C)C(C(=O)OC(C#N)c2cccc(Oc3ccccc3)c2)C1(C)C` (stereo unspecified) yielded a logP of 5.7.

For the compound `NS(=O)(=O)c1ccc([N+](=O)[O-])c(C(F)(F)F)c1`, the logP amounted to 1.73.

`CCCc1cc(C(=O)NN)ccn1` registered a logP of 0.63.

`CCCCN(CCCC)CC(O)c1ccccc1` (stereo unspecified) displayed a logP of 3.16.

`CNCCOc1cc(C)c(O)cc1C(C)C`: the logP came to 2.35.

The compound `CN(C)c1nc(N(C)C)nc(N(C)C)n1` gave a logP of 2.73.

`[N-]=[N+]=CC(=O)NCC(N)=O` displayed a logP of -1.26.

Compound `Cn1c(N)nc2cc(C#N)ccc21` gave a lipophilicity (logP) of 1.11.

Turning to `CC(=O)c1ccc(C)cc1`, the logP turned out to be 2.1.

Compound `O=c1nc[nH]c(=O)[nH]1` gave a logP of -1.87.

The compound `Cc1cccc2ccccc12` displayed a logP of 3.87.

For the compound `CCC(=O)Nc1ccccc1`, the logP turned out to be 1.61.

The compound `NC(=O)Cc1cccs1` gave a logP of 0.33.

`COc1ccc(CC(=O)O)cc1` came in with a logP of 1.42.

Compound `CCN(CC)CCNC(=O)c1ccccc1` registered a logP of 1.99.

Compound `NC(=O)Nc1ccccc1Cl` displayed a logP of 1.27.
